Experimental data reported in US20160030364A1, “Therapeutic Compositions and Uses Thereof” (MANUKA HEALTH NEW ZEALAND LIMITED, priority 2013, published 2016).

Assays:
Assay type in all cases: cell-based
[1] = test system: human gastric carcinoma cell line (NCI-N87); experiment: MTT anti-proliferative assay, NCI-N87 (Examples 3-12); details: 200 μg/ml; for % stim. / Mean OD (570 nm) / % inhibition: 48 hours; for inhibition at 200 µg/mL: Homo sapiens, NCI-N87, 48 h
Procedure: (§1) 5-phenylpenta-2,4-dienoic acid was assessed for its ability to modulate the viability and proliferation of human colorectal adenocarcinoma cells (DLD-1); human colon cancer cell line (HCT-116); human gastric carcinoma cell line (NCI-N87); and human oesophageal squamous cell carcinoma cell line (KYSE-30) as assessed by the MTT assay. The positive control, 5-fluorouracil (5-FU) was included at three concentrations; in addition to an unsupplemented cell control as a negative control in the study. The 5-phenylpenta-2,4-dienoic acid was a genuine standard with chemical structure confirmed by NMR and MS.
(§2) The four human gastrointestinal carcinoma cell lines were revived from cryostorage and cultured in the presence of the test and reference samples. An MTT assay was then performed on the cultures to determine the effect of the samples on the cell viability and proliferation.
(§3) The test sample 5-phenylpenta-2,4-dienoic acid, and all other test samples in Examples 4-12 (except tectochrysln) were Initially dissolved in pure ethanol to a concentration of around 13.35 mg/ml. Tectochrysin was initially dissolved in triethylene glycol mono-methyl ether to the same concentration. Working solutions were then prepared from the stock solutions by dilution to 15% ethanol/Hanks Balanced Salt Solution (ETOH)/HBSS to a concentration of 2 mg/mL solids. In the assay the final concentration of the samples was 200 μg/ml with a final EtOH concentration of 1.5%. Final concentrations of test compounds and propolis prepared as above are as noted in Example 3.
(§4) • 1. Human colorectal adenocarcinoma cells (ATCC CCI-221, DLD-1)(ATCC, Bethesda, Md., USA) • 2. Human gastric carcinoma cells (ATCC CRL-5822, NCI-N87)(ATCC, Bethesda, Md., USA) • 3. Human oesophageal squamous cell carcinoma (ECACC, KYSE-30)(Sigma Aldrich, Auckland, NZ) • 4. Human colon carcinoma cells (ECACC HCT-116)(Sigma Aldrich, Auckland, NZ) • 5. Penicillin-streptomycin solution: 10000 units/ml penicillin, 10 mg/ml streptomycin in 0.9% NaCl (Sigma Cat #P-0781). Stored at −20° C. • 6. For DLD-1 cells: DMEM culture medium (Invitrogen Cat #12100-046). Stored at 4° C. • 7. For NCI-N87 cells: RPMI-1640 medium modified to contain 2 mM L-glutamine, 10 mM HEPES, 1 mM sodium pyruvate, 4500 mg/L glucose, and 1500 mg/L sodium bicarbonate (Sigma R6504). Stored at 4° C. • 8. For KYSE-410 cells: RPMI-1640 medium modified to contain 2 mM L-glutamine (Sigma R6504). Stored at 4° C. • 9. For HCT-116 cells: McCoy's 5A medium modified to contain 2 mM L-glutamine (Sigma M48792). Stored at 4° C. • 10. Trypsin-EDTA solution: 0.25% Trypsin/EDTA, Invitrogen Cat#15400054 (×10 in stock). • 11. Phosphate buffered saline (PBS) (Prepared by TBL). • 12. Hanks Balanced Salt Solution (HBSS). (GIBCO Cat No. 14185-052). Stored at 4° C. • 13. Foetal Bovine Serum (GIBCO Cat #10091-148). Stored at −20° C. • 14. MTT Reagent: 100 mg/vial, (SIGMA Cat. No. M-2128) dissolved in PBS at 10 mg/ml and stored at −20° C. 5 mg/ml MTT solution will be prepared in PBS and stored at 4° C. as working solution. • 15. MTT lysis buffer: 10% sodium dodecyl sulphate (SDS)/45% Dimethyl Formamide (20 g SDS will be dissolved in 100 ml of double-distilled water (DDW), and 90 ml of Dimethyl Formamide will be added to the SDS solution). The pH will be adjusted to 4.7 by glacial acetic acid, and DDW added up to a final volume of 200 ml. • 16. 5-Fluorouracil (5-FU), (Sigma Cat. No. F-6627). Three working solutions will be prepared at 19.5 μg/ml. 6.5 μg/ml and 1.95 μg/ml dissolved in 15% Ethanol/HBSS. Final concentrations will be 1.95 μg/ml (15 μM), 0.65 μg/ml (5 μM) and 0.195 μg/ml (1.5 μM).
(§5) The medium for the propagation of the each of the cells lines is given above. Each medium was prepared following the ATCC/ECACC instructions and supplemented with penicillin-streptomycin solution (10 ml per litre). FBS (at 10%) was added just before use.
• 1. […]

[2] = test system: human oesophageal squamous cell carcinoma cell line (KYSE-30); experiment: MTT anti-proliferative assay, KYSE-30 (Examples 3-13); details: Examples 3-12, 200 μg/ml, 48 hours; for inhibition at 200 µg/mL: Homo sapiens, KYSE-30, 48 h
Procedure: as §1, §2, §3, §4, §5
• 1. […]

[3] = test system: human colorectal adenocarcinoma cells (DLD-1); experiment: MTT anti-proliferative assay, DLD-1 (Examples 3-12); details: 200 μg/ml; for % inhibition / % stim. / Mean OD (570 nm): 48 hours; for inhibition at 200 µg/mL: Homo sapiens, DLD-1, 48 h
Procedure: as §1, §2, §3, §4, §5
• 1. […]

[4] = test system: human colon cancer cell line (HCT-116); experiment: MTT anti-proliferative assay, HCT-116 (Examples 3-12); details: 200 μg/ml; for % inhibition / % stim. / Mean OD (570 nm): 48 hours; for inhibition at 200 µg/mL: Homo sapiens, HCT-116, 48 h
Procedure: as §1, §2, §3, §4, §5
• 1. […]

[5] = listed as Pinobanksin 3-O-acetate

Structure (SMILES) | % stim. [1] [%] | Mean OD (570 nm) [1] | % inhibition [2] [%] | % stim. [2] [%] | Mean OD (570 nm) [2] | % inhibition [3] [%] | % stim. [3] [%] | Mean OD (570 nm) [3] | % inhibition [4] [%] | % stim. [4] [%] | Mean OD (570 nm) [4] | % inhibition [1] [%] | inhibition at 200 µg/mL [1] [%] | inhibition at 200 µg/mL [2] [%] | inhibition at 200 µg/mL [3] [%] | inhibition at 200 µg/mL [4] [%] | % inhibition [1, 5] [%] | % inhibition [2, 5] [%] | % inhibition [3, 5] [%] | % inhibition [4, 5] [%]
COc1cc(O)c(C(=O)/C=C/c2ccccc2)c(O)c1 [pinostrobin chalcone] | 5.5 | 0.4659 | 45.0 | 0 | 0.3312 | 83.3 | 0 | 0.069 | 51.2 | 0 | 0.2482 | – | – | – | – | – | – | – | – | –
COc1ccc(/C=C/C(=O)OCc2ccccc2)cc1O [benzyl isoferulate] | 0 | 0.0885 | 95.82 | 0 | 0.0251 | 90.81 | 0 | 0.0379 | 94.81 | 0 | 0.0264 | 79.95 | 80 | 95.8 | 90.8 | 94.8 | – | – | – | –
O=C(O)C=CC=Cc1ccccc1 [5-phenylpenta-2,4-dienoic acid] | 0 | 0.2537 | 37.55 | 0 | 0.3758 | – | 0 | 0.2329 | 36.43 | 0 | 0.3232 | – | 42.6 | 37.6 | 43.5 | 36.4 | – | – | – | –
CC(=O)O[C@H]1C(=O)c2c(O)cc(O)cc2O[C@@H]1c1ccccc1 [pinobanksin 3-O-acetate, pinobanksin-3-acetate] | 0 | 0.2287 | 68.01 | 0 | – | – | 0 | – | 90.61 | 0 | 0.0477 | 48.22 | – | – | – | – | 48.2 | 68.0 | 75.4 | 90.6
